Reference: patent US11332459B2 (TEIJIN PHARMA LIMITED, priority 2017, dated 2022)
pIC50: −log10 of the molar value.

Target: T1, human TRPC6 (Homo sapiens, UniProt Q9Y210)
T1 construct: expressed in transfected cells
T1 sequence (Q9Y210 1-931): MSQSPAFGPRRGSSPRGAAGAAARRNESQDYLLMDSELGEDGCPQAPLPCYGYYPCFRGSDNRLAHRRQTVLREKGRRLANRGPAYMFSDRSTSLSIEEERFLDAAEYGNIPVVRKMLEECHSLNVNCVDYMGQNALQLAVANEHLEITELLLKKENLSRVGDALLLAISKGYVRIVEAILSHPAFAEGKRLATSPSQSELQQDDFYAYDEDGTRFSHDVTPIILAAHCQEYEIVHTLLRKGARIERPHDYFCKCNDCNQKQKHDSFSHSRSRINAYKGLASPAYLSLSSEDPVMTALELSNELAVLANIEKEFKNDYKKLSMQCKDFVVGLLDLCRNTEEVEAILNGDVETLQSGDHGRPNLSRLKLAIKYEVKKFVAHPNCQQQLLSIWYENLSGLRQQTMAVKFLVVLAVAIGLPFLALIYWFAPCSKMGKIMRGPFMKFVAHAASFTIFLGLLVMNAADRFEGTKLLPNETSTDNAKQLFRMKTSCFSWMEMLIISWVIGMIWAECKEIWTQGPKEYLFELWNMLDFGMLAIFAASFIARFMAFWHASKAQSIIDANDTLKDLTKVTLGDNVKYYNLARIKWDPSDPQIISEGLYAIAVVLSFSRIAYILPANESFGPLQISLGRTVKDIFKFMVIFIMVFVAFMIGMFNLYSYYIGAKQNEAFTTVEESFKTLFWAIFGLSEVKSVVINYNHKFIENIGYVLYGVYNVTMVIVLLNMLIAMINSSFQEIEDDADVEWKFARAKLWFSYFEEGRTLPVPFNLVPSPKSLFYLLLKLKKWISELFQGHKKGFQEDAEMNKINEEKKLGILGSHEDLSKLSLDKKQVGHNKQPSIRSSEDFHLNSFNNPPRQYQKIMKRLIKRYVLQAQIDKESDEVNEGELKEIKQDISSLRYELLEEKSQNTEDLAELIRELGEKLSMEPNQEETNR
Assay: TRPC6 calcium flux assay (FLIPR, OAG-stimulated calcium influx)
Format: cell-based
Details: HEK293 cells stably transfected with human TRPC6, read-out: hTRPC6 Potency
Method in brief: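 HEK293 cells stably expressing human TRPC6, loaded with calcium dye 90–120 min at RT, then given compound for 25 min before OAG (50 uM final, 0.5% DMSO) in HEPES buffer pH 7.2 with 2 mM CaCl2. Background-subtracted FLIPR peak over 180 s normalized to OAG vs buffer; IC50 from dose plot.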

pIC50 | SMILES
< 5.43 | N[C@@H]1CN(c2nc3cc(F)c(F)cc3n2CC(=O)N2CC3(CCOCC3)C2)CC[C@H]1F [Example 431, 2-(2-((3R,4R)-3-amino-4-fluoropiperidin-1-yl)-5,6-difluoro-1H-benzo[d]imidazol-1-yl)-1-(7-oxa-2-azaspiro[3.5]nonan-2-yl)ethanone]
8.11 | CN[C@@H]1CN(c2nc3ccc(F)cc3n2Cc2ccc(C#N)cn2)CCC1(F)F [Example 432, (R)-6-((2-(4,4-difluoro-3-(methylamino)piperidin-1-yl)-6-fluoro-1H-benzo[d]imidazol-1-yl)methyl)nicotinonitrile]
< 5.43 | N#Cc1ccc(Cn2c(N3CCC(F)(F)[C@H](NCCO)C3)nc3ccc(F)cc32)nc1 [Example 433, (R)-6-((2-(4,4-difluoro-3-((2-hydroxyethyl)amino)piperidin-1-yl)-6-fluoro-1H-benzo[d]imidazol-1-yl)methyl)nicotinonitrile]
< 5.43 | N[C@H]1CCCN(c2nc3ccccc3n2Cc2ccc(C(=O)O)cn2)C1 [Example 434, (S)-6-((2-(3-aminopiperidin-1-yl)-1H-benzo[d]imidazol-1-yl)methyl)nicotinic acid]
7.28 | NC(=O)c1ccc(Cn2c(N3CC[C@@H](F)[C@H](N)C3)nc3ccccc32)nc1 [Example 436, 6-((2-((3R,4R)-3-amino-4-fluoropiperidin-1-yl)-1H-benzo[d]imidazol-1-yl)methyl)nicotinamide]
< 5.43 | N[C@@H]1CN(c2nc3cc(F)c(F)cc3n2CC(=O)O)CC[C@H]1F [Example 437, 2-(2-((3R,4R)-3-amino-4-fluoropiperidin-1-yl)-5,6-difluoro-1H-benzo[d]imidazol-1-yl)acetic acid]
9.50 | N#Cc1cnc(Cn2c(N3CC[C@@H](F)[C@H](N)C3)nc3ccc(F)cc32)nc1 [Example 442, 2-((2-((3R,4R)-3-amino-4-fluoropiperidin-1-yl)-6-fluoro-1H-benzo[d]imidazol-1-yl)methyl)pyrimidine-5-carbonitrile]
9.33 | N#Cc1cnc(Cn2c(N3CC[C@@H](F)[C@H](N)C3)nc3cc(F)ccc32)nc1 [Example 443, 2-((2-((3R,4R)-3-amino-4-fluoropiperidin-1-yl)-5-fluoro-1H-benzo[d]imidazol-1-yl)methyl)pyrimidine-5-carbonitrile]
8.35 | COc1cnc(Cn2c(N3CC[C@@H](F)[C@H](N)C3)nc3ccc(F)cc32)nc1 [Example 444, (3R,4R)-4-fluoro-1-(6-fluoro-1-((5-methoxypyrimidin-2-yl)methyl)-1H-benzo[d]imidazol-2-yl)piperidin-3-amine]
7.68 | CN(CC(F)(F)F)C(=O)Cn1c(N2CC[C@@H](F)[C@H](N)C2)nc2ccc(F)cc21 [Example 445, 2-(2-((3R,4R)-3-amino-4-fluoropiperidin-1-yl)-6-fluoro-1H-benzo[d]imidazol-1-yl)-N-methyl-N-(2,2,2-trifluoroethyl)acetamide]
7.47 | COc1cnc(Cn2c(N3CC[C@@H](F)[C@H](N)C3)nc3cc(F)ccc32)nc1 [Example 446, (3R,4R)-4-fluoro-1-(5-fluoro-1-((5-methoxypyrimidin-2-yl)methyl)-1H-benzo[d]imidazol-2-yl)piperidin-3-amine]
6.92 | CN(CC(F)(F)F)C(=O)Cn1c(N2CC[C@@H](F)[C@H](N)C2)nc2c(C#N)cc(F)cc21 [Example 447, 2-(2-((3R,4R)-3-amino-4-fluoropiperidin-1-yl)-4-cyano-6-fluoro-1H-benzo[d]imidazol-1-yl)-N-methyl-N-(2,2,2-trifluoroethyl)acetamide]
6.91 | COc1ccc2nc(N3CC[C@@H](F)[C@H](N)C3)n(CC(=O)N(C)C)c2c1 [Example 448, 2-(2-((3R,4R)-3-amino-4-fluoropiperidin-1-yl)-6-methoxy-1H-benzo[d]imidazol-1-yl)-N,N-dimethylacetamide]
5.94 | COc1ccc2c(c1)nc(N1CC[C@@H](F)[C@H](N)C1)n2CC(=O)N(C)CC(F)(F)F [Example 449, 2-(2-((3R,4R)-3-amino-4-fluoropiperidin-1-yl)-5-methoxy-1H-benzo[d]imidazol-1-yl)-N-methyl-N-(2,2,2-trifluoroethyl)acetamide]
< 5.43 | COc1ccc2c(c1)nc(N1CC[C@@H](F)[C@H](N)C1)n2CC(=O)N(C)C [Example 450, 2-(2-((3R,4R)-3-amino-4-fluoropiperidin-1-yl)-5-methoxy-1H-benzo[d]imidazol-1-yl)-N,N-dimethylacetamide]
9.21 | CO[C@@H]1CCN(c2nc3ccc(F)cc3n2Cc2ccc(C#N)cn2)C[C@H]1N [Example 451]
8.93 | COc1cc(F)cc2c1nc(N1CC[C@@H](F)[C@H](N)C1)n2Cc1ccc(C#N)cn1 [Example 452, 6-((2-((3R,4R)-3-amino-4-fluoropiperidin-1-yl)-6-fluoro-4-methoxy-1H-benzo[d]imidazol-1-yl)methyl)nicotinonitrile]
8.82 | N#Cc1ccc(Cn2c(N3CC[C@@H](F)[C@H](N)C3)nc3ccc(C(F)(F)F)nc32)nc1 [Example 453, 6-((2-((3R,4R)-3-amino-4-fluoropiperidin-1-yl)-5-(trifluoromethyl)-3H-imidazo[4,5-b]pyridin-3-yl)methyl)nicotinonitrile]
8.82 | CO[C@@H]1CCN(c2nc3ccc(F)cc3n2Cc2ncc(Cl)cn2)C[C@H]1N [Example 454, (3R,4R)-1-(1-((5-chloropyrimidin-2-yl)methyl)-6-fluoro-1H-benzo[d]imidazol-2-yl)-4-methoxypiperidin-3-amine]
8.18 | N[C@@H]1CN(c2nc3ccc(Br)cc3n2CC(=O)N2CCC2)CC[C@H]1F [Example 455, 2-(2-((3R,4R)-3-amino-4-fluoropiperidin-1-yl)-6-bromo-1H-benzo[d]imidazol-1-yl)-1-(azetidin-1-yl)ethan-1-one]
7.88 | CN(CC(F)(F)F)C(=O)Cn1c(N2CC[C@@H](F)[C@H](N)C2)nc2ccc(F)cc21 [Example 457, 2-(2-((3R,4R)-3-amino-4-fluoropiperidin-1-yl)-6-fluoro-1H-benzo[d]imidazol-1-yl)-N-methyl-N-(2,2,2-trifluoroethyl)acetamide]
7.79 | N#Cc1ccc(Cn2c(N3CC[C@@H](F)[C@H](N)C3)nc3nc(C(F)(F)F)ccc32)nc1 [Example 458, 6-((2-((3R,4R)-3-amino-4-fluoropiperidin-1-yl)-5-(trifluoromethyl)-1H-imidazo[4,5-b]pyridin-1-yl)methyl)nicotinonitrile]
7.79 | N[C@@H]1CN(c2nc3ccc(C(F)(F)F)cc3n2CC(=O)N2CCOCC2)CC[C@H]1F [Example 459, 2-(2-((3R,4R)-3-amino-4-fluoropiperidin-1-yl)-6-(trifluoromethyl)-1H-benzo[d]imidazol-1-yl)-1-morpholinoethan-1-one]
7.62 | CN(CC(F)(F)F)C(=O)Cn1c(N2CC[C@@H](F)[C@H](N)C2)nc2cc(F)ccc21 [Example 460, 2-(2-((3R,4R)-3-amino-4-fluoropiperidin-1-yl)-5-fluoro-1H-benzo[d]imidazol-1-yl)-N-methyl-N-(2,2,2-trifluoroethyl)acetamide]
7.54 | CN(C)C(=O)Cn1c(N2CC[C@H](F)[C@H](N)C2)nc2ccc(Cl)cc21 [Example 461, 2-(2-((3R,4S)-3-amino-4-fluoropiperidin-1-yl)-6-chloro-1H-benzo[d]imidazol-1-yl)-N,N-dimethylacetamide]
7.53 | CN(CC(F)(F)F)C(=O)Cn1c(N2CC[C@H](F)[C@H](N)C2)nc2ccc(F)cc21 [Example 462, 2-(2-((3R,4S)-3-amino-4-fluoropiperidin-1-yl)-6-fluoro-1H-benzo[d]imidazol-1-yl)-N-methyl-N-(2,2,2-trifluoroethyl)acetamide]
7.47 | CO[C@H]1CCN(c2nc3ccc(F)cc3n2Cc2ccc(C#N)cn2)C[C@H]1N [Example 463, 6-((2-((3R,4S)-3-amino-4-methoxypiperidin-1-yl)-6-fluoro-1H-benzo[d]imidazol-1-yl)methyl)nicotinonitrile]
7.20 | N[C@@H]1CN(c2nc3ccc(C(F)(F)F)cc3n2CC(=O)N2CCOCC2)CC[C@@H]1F [Example 464, 2-(2-((3R,4S)-3-amino-4-fluoropiperidin-1-yl)-6-(trifluoromethyl)-1H-benzo[d]imidazol-1-yl)-1-morpholinoethan-1-one]
7.06 | CN(CC(F)(F)F)C(=O)Cn1c(N2CCC(F)(F)[C@H](N)C2)nc2ccc(F)cc21 [Example 465, (R)-2-(2-(3-amino-4,4-difluoropiperidin-1-yl)-6-fluoro-1H-benzo[d]imidazol-1-yl)-N-methyl-N-(2,2,2-trifluoroethyl)acetamide]
